Experimental data reported in patent publication US20230099367A1 (VERSITECH LIMITED, priority 2019, published 2023).
Blank lines part the entries; values can stand above or below the molecule they belong to. Ends that are not written are not given here.

Legend:
human SCTR = biological target: T1, human SCTR (Homo sapiens, UniProt P47872); test: In vitro Lance cAMP assay in CHO cells overexpressing human SCTR; assay type: cell-based
T1 construct: expressed in transfected cells; host or cells: CHO cells
T1 sequence (P47872 23-440): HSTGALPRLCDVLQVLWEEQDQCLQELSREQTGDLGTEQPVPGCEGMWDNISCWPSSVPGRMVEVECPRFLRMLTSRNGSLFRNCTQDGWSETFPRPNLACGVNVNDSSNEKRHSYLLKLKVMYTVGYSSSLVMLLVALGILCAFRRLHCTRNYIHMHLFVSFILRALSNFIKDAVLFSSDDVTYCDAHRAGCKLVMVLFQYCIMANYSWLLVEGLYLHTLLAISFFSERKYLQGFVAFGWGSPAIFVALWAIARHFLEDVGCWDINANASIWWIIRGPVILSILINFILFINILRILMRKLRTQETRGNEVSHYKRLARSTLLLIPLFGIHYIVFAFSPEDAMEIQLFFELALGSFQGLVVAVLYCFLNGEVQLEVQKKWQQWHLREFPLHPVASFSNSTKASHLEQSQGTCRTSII
Description: As SCTR is known to have cAMP as the secondary messenger, therefore to study receptor activation, the concentration of cAMP is measured by the help of Lance cAMP assay using the assay kit from PerkinElmer, as per the standardized protocol in our lab. […] Additionally, the cells upon transfection were used for the extraction of total RNA (TriPure reagent, Invitrogen) to confirm the receptor's expression.
The selected compounds were procured from TargetMol and chemicalbook.com. […] The five compounds were then used for analyzing their dose-dependent response on the SCTR to verify their effect on the receptor.

SCTR = biological target: T2, SCTR (Mus musculus, UniProt Q5FWI2); test: Ex vivo cAMP assay on isolated mouse tissues; parameters: species or system mice (C57); conditions: isolated C57 mouse tissues; secretin 1 μM, KSD179019 100 μM
T2 construct: low expression levels of the intrinsic receptor; from tissue; host or cells: duodenum, pancreas, cerebellum and kidney of C57 mice
T2 sequence (Q5FWI2 29-447): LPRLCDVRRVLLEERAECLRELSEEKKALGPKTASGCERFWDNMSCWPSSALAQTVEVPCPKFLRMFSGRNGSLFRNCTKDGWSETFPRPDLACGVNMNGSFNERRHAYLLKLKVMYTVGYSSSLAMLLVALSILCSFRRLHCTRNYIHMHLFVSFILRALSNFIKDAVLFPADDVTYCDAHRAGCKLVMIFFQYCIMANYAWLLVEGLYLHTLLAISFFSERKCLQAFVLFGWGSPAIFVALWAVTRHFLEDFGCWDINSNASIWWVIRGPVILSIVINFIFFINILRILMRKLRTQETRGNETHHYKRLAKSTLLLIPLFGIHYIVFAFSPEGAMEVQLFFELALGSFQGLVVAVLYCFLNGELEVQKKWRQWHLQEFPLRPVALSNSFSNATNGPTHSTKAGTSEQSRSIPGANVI
Text: Various tissues were collected from C57 mice and were washed three times with ice-cold HBSS (Invitrogen). Tissues were minced and weighed equally into four parts. […] After drug treatment, the tissues were homogenized for measuring the concentration of the cAMP by the Lance cAMP assay kit.

plasma vasopressin = test: Plasma vasopressin after intracerebroventricular injection; assay type: in vivo, C57 mice; conditions: i.c.v.; secretin 500 ng/5 μl, KSD179019 260 ng/5 μl; 0-60 min; vs ACSF
Description: The complete protocol was performed as reported in our lab. Mice were implanted with the stainless-steel cannula with a projection to the lateral ventricular region (bregma: 0.5 mm, lateral: 1.0 mm and depth: 2.0 mm). The mice were allowed to recover for at least 5 days after the surgery. […] ACSF alone was used as a vehicle control. After drug treatment, blood was collected from the jugular vein at 0, 15, 30, 45 and 60 min. Plasma samples were collected from the whole blood by centrifugation at 4000×g for 10 min at 4° C. The samples were then used for the quantification of vasopressin by the help of ELISA using a commercial kit from (Phoenix Pharmaceuticals, Inc.) according to manufacturer instruction.

blood pressure [1] = test: Blood pressure in spontaneously hypertensive rats (DSI telemetry); assay type: in vivo, spontaneously hypertensive rat (SHR)
Description: Anti-hypertensive action of KSD179019 was analyzed by continues monitoring of the blood pressure and heart rate on spontaneously hypertensive rat (SHR) by using DSI telemetric implantation. DSI device was surgically implanted using the methodology described before. […] We used conventional combination therapy i.e. Azilsartan (Az; 0.3 μg/g BW) and Chlorthalidone (CLT; 1 μg/g BW) for the comparison with […]. Az is an angiotensin II receptor antagonist and CLT is a diuretic compound. Both these compounds are commonly used in the treatment of hypertension either individually and in combination. The dosing of the combination of Az+CLT on SHR rats is used as documented in previous publications. For blood pressure monitoring, telemetric device by DSI was used, using the implantation methodology mentioned earlier.

[2] = system: salmonella strains (TA98, TA100, TA1535 and TA1537) and combination of two E.coli strains (uvrA and pKM101); test: Ames test for mutagenicity (OECD-471)
Description: In vitro and in vivo toxicity testing was performed. All these test were performed using the OECD guidelines. […] The MTT assay was performed on liver cells (HepG2 cell line) and kidney cells (HEK293 cell line) as they are the major organs effected by drug toxicity. […] Additionally, the potential carcinogenicity of this drug is tested according to OECD-471 (Ames test) using the commercially available kit from XENOMETRIX. The mutation effect of the drug was tested in salmonella strains (TA98, TA100, TA1535 and TA1537) and on the combination of two E.coli strains (uvrA and pKM101) (FIGS. 8a; 8b; 8c; 8d and 8e). […] Additionally, as the drug's secondary metabolite can also have carcinogenic effect, the Ames test was performed in presence of liver enzymes which can cause the formation of secondary metabolites (S9 liver extract) (FIGS. 9a; 9b; 9c; 9d and 9e). […] The animal testing was done under an animal license from the Laboratory Animal Unit (LAU) of the University of Hong Kong for testing at acute, sub-chronic and chronic levels of exposure. The study was done based on the OECD-423 guidelines. […] Major organs like brain, heart, liver, kidney, intestine, and colon were collected and analysed. […]
In vitro and in vivo toxicity testing was performed. […] Major organs like brain, heart, liver, kidney, intestine, and colon were collected and analysed. […]

[3] = Acute oral toxicity over 14 days (OECD-423), LD50 estimation; assay type: in vivo, C57BL/6J mice
Description: In vitro and in vivo toxicity testing was performed. All these test were performed using the OECD guidelines. […] The MTT assay was performed on liver cells (HepG2 cell line) and kidney cells (HEK293 cell line) as they are the major organs effected by drug toxicity. […] Additionally, the potential carcinogenicity of this drug is tested according to OECD-471 (Ames test) using the commercially available kit from XENOMETRIX. The mutation effect of the drug was tested in salmonella strains (TA98, TA100, TA1535 and TA1537) and on the combination of two E.coli strains (uvrA and pKM101) (FIGS. 8a; 8b; 8c; 8d and 8e). […] Additionally, as the drug's secondary metabolite can also have carcinogenic effect, the Ames test was performed in presence of liver enzymes which can cause the formation of secondary metabolites (S9 liver extract) (FIGS. 9a; 9b; 9c; 9d and 9e). […] The animal testing was done under an animal license from the Laboratory Animal Unit (LAU) of the University of Hong Kong for testing at acute, sub-chronic and chronic levels of exposure. The study was done based on the OECD-423 guidelines. […] The test was done on 6 animals in two batches in both males and females. The body weight change remained under 2 grams (FIG. 11) which is normal growth for 9 weeks old C57BL/6J (https://www.jax.org/jax-mice-and-services/strain-data-sheet-pages/body-weight-chart-000664#). […] The animals were subjected to histological analysis post sacrificing on day 14. Major organs like brain, heart, liver, kidney, intestine, and colon were collected and analysed. […] However, in order to determine a dose for sub-chronic and chronic studies, according to OECD recommendations, 3 animals were administered 5000 mg/kg BW of drug in a single administration. […] During the 14 day observation the animals remained healthy with no change in body weight and body temperature (FIG. 13).
In vitro and in vivo toxicity testing was performed. All tests were performed using the OECD guidelines. […] The MTT assay was performed on liver cells (HepG2 cell line) and kidney cells (HEK293 cell line) as they are the major organs effected by drug toxicity. […] Additionally, the potential carcinogenicity of this drug is tested according to OECD-471 (Ames test) using the commercially available kit from XENOMETRIX. The mutation effect of the drug was tested in salmonella strains (TA98, TA100, TA1535 and TA1537) and on the combination of two E.coli strains (uvrA and pKM101) (FIGS. 19a; 19b; 19c; 19d and 19e). […] Additionally, as the drug's secondary metabolite can also have carcinogenic effect, the Ames test was performed in presence of liver enzymes which can cause the formation of secondary metabolites (S9 liver extract) (FIGS. 20a; 20b; 20c; 20d and 20e). […] The animal testing was done under an animal license from the Laboratory Animal Unit (LAU) of the University of Hong Kong for testing at acute, sub-chronic and chronic levels of exposure. The study was done based on the OECD-423 guidelines. […] The test was done on 6 animals in two batches in both males and females. The body weight change remained under 2 grams (FIG. 21) which is normal growth for 9 weeks old C57BL/6J (https://www.jax.org/jax-mice-and-services/strain-data-sheet-pages/body-weight-chart-000664#). […] The animals were subjected to histological analysis post sacrificing on day 14. Major organs like brain, heart, liver, kidney, intestine, and colon were collected and analysed. […] However, in order to determine a dose for sub-chronic and chronic studies, according to OECD recommendations, 3 animals were administered 5000 mg/kg BW of drug in a single administration. […] During the 14 day observation the animals remained healthy with no change in body weight and body temperature (FIG. 23).

[4] = in vivo; cited from earlier work
blood pressure [5] = test: Blood pressure after intraperitoneal secretin (DSI telemetry); assay type: in vivo, C57 mice; conditions: secretin 0.5 μg/g BW intraperitoneal; 5 min post administration
Description: The DSI telemetric device was implanted using the standardized protocol from our lab. Post recovery, blood pressure measurements, and drug administration were initiated. […] The heart rate and blood pressure were measured continually up to 150 min post-injection time.

[6] = 14 days after 2000 mg/kg BW oral

Molecule: c1ccc2c(Oc3nc(Nc4ccc(N5CCOCC5)cc4)c4ncn(C5CCCCC5)c4n3)cccc2c1 [KSD179019, puromorphamine]
efficacy, % of maximal cAMP (of secretin) (human SCTR; SCT with KSD179019 (100 μM), maximal cAMP by SCT at 1 μM): 131.9%
cAMP concentration compared to basal level (agonist screening) (human SCTR; compound 100 μM, CHO cells overexpressing human SCTR): low but statistically significant increase in cAMP concentration
cAMP response together with secretin (antagonist screening) (human SCTR; compound (10 μM in FIG. 6 legend, 100 μM elsewhere in the source) with 1 μM secretin): potentiated the effect of secretin with significantly higher cAMP response
dose-dependent effect on secretin cAMP stimulation (human SCTR; different secretin concentrations plus KSD179019 100 μM): dose-dependent potentiation of secretin on cAMP stimulation
cAMP production from duodenum, cerebellum and pancreas (SCTR): able to stimulate cAMP production
plasma Vp (vasopressin) concentration (plasma vasopressin): significant increase in plasma Vp
hypotensive effect, times longer than combination therapy (Az and CLT) (blood pressure [1]; SHR rats): 3 times
hypotensive effect, times longer than secretin peptide (blood pressure [1]; SHR rats): 360 times
time that reduction in blood pressure lasted significantly (blood pressure [1]; SHR, 0.26 μg/g BW tail vein (FIG. 12C)): up to 20 hours
blood pressure reduction (blood pressure [1]; SHR, 0.26 μg/g BW tail vein injection, vs saline): consistent blood pressure reduction
drop in blood pressure at peak (blood pressure [1]; SHR, KSD179019, peaked at 40 hours): 10%
reduction in mean arterial blood pressure (blood pressure [1]; SHR, intravenous 0.26 μg/g BW, up to 60 hours post administration): approximately 10%
reduction of MABP (blood pressure [1]; SHR, intravenous, at 40 and 60 hours (FIG. 13B, N=2)): 10%
time window of statistically significant drops in diastolic and systolic blood pressure (blood pressure [1]; SHR, oral 30, 50 and 80 mg/kg BW (FIG. 17)): 20 to 50 h
time window of statistically significant drops in diastolic and systolic blood pressure (blood pressure [1]; SHR, tail-vein 0.26 μg/g body weight (FIG. 16)): 20 to 50 h
duration of hypotensive effect post administration (blood pressure [1]; SHR, until blood pressure recovered / effect still observed): up to 60 hours
carcinogenic potential of drug or metabolites, Ames test ([2]; in presence of S9 liver extract): no carcinogenic potential
mutation effect, Ames test ([2]; without S9 liver extract): No mutational effect
fatal or toxic effects ([3]; 5000 mg/kg BW single administration, 14 day observation): no fatal or toxic effects were observed
overall health of animals ([3]; 14 day after single oral dose of 2000 mg/kg BW): no effect on the overall health of animals
body temperature [3, 6]: remained constant
body weight change [3, 6]: under 2 grams
histological analysis of major organs (necrosis) ([3]; day 14, brain, heart, liver, kidney, intestine, colon, 2000 mg/kg BW): None of these organs were observed to have any signs of necrosis
LD50 ([3]; single oral administration, male and female mice, estimated, no fatality at 2000 mg/kg BW): 2000-5000 mg/kg BW

Molecule: SecreFlo: synthetic secretin peptide analog (HSDGTFTSELSRLRDSARLQRLLQGLV; ends and bridges not checked; UniProt P63298 33-59, looked up)
half-life in circulation [4]: 20 min

cAMP production from duodenum, cerebellum and pancreas (SCTR): able to stimulate cAMP production
Molecule: CC(C)C[C@H](NC(=O)CNC(=O)[C@H](CCC(N)=O)NC(=O)[C@H](CC(C)C)NC(=O)[C@H](CC(C)C)NC(=O)[C@H](CCCNC(=N)N)NC(=O)[C@H](CCC(N)=O)NC(=O)[C@H](CC(C)C)NC(=O)[C@H](CCCNC(=N)N)NC(=O)[C@H](C)NC(=O)CNC(=O)[C@H](CCC(=O)O)NC(=O)[C@H](CCCNC(=N)N)NC(=O)[C@H](CC(C)C)NC(=O)[C@H](CCCNC(=N)N)NC(=O)[C@H](CO)NC(=O)[C@H](CC(C)C)NC(=O)[C@H](CCC(=O)O)NC(=O)[C@H](CO)NC(=O)[C@@H](NC(=O)[C@H](Cc1ccccc1)NC(=O)[C@@H](NC(=O)CNC(=O)[C@H](CC(=O)O)NC(=O)[C@H](CO)NC(=O)[C@@H](N)Cc1c[nH]cn1)[C@@H](C)O)[C@@H](C)O)C(=O)N[C@H](C(N)=O)C(C)C [secretin, reference compound]
plasma Vp (vasopressin) concentration (plasma vasopressin): significant increase in plasma Vp
systolic and diastolic blood pressure drop (blood pressure [5]): blood pressure drop was significant
duration of blood pressure reduction (blood pressure [1]; intravenous injection of secretin peptide): approximately 10 min
half-life in circulation [4]: approximately 2 min

Molecule: ChiRhoStim: synthetic secretin peptide analog
half-life in circulation [4]: 45 min
